These results are taken from PMC12677652, “Procyanidin B3 and Its Derivatives Alleviate Neuronal Injury by Targeting G3BP1 for Ischemic Stroke Therapy” (Advanced Science, 2025).

The subject of test [1] is G3BP1 knockdown HT22 cells. Nature of the test: Activity of PB3 in G3BP1 knockdown (siRNA) HT22 cells. The test is classed as cell-based. As to conditions: PB3 50 µM. Here is the method:
The CCK‐8 assay kit (Yeasen, China) was used to assess cell viability. All operations were performed following instructions. HT22 cells were seeded into the 96‐well plate (3000 cells per well). The cells were cultured at 37 °C with 5% CO2 in a humidified incubator overnight. After 6 h of OGD, the medium was replaced by DMEM/F‐12 with 10% FBS and 1% penicillin/streptomycin containing PB3 or other compounds and kept in a humidified 5% CO2, 37 °C incubator for 24 h. Then, the cells were washed with PBS, the medium was replaced with DMEM/F‐12 with 10% FBS and 1% penicillin/streptomycin containing 10% CCK‐8 solution, and incubated for 1 h at 37 °C. The absorbance was assessed by a Synergy H1 multi‐mode microplate reader (BioTek, USA) at 450 nm.
Apoptosis level was evaluated by TUNEL staining and flow cytometry. For TUNEL staining, HT22 cells were treated with 4% paraformaldehyde for 15 min. […] Red fluorescence was utilized to identify apoptotic cells, while 4′, 6‐diamidino‐2‐phenylindole (DAPI) was used to counterstain the nuclei. The fluorescence microscope (Carl Zeiss, Germany) was used to obtain images. For flow cytometry, apoptotic cells were determined with the Annexin V‐Alexa Fluor 488/PI apoptosis detection kit (Yeasen, China) by following the instructions. […] Cell apoptosis was immediately determined by Cytek Aurora (Cytek Biosciences, USA). […]

Another test has as its system G3BP1‐bound mRNA. Nature of the test: RIP assay with RT-qPCR of G3BP1-bound mRNAs. The test is classed as cell-based. The settings on record: 50 µM, 6 h of reperfusion following OGD. Here is the method: Total RNA from HT22 cells was extracted with Trizol. The concentration and purity of RNA were determined by Nanodrop (Thermo Scientific, USA), and RNA was reverse transcribed by PrimeScript Reverse Transcription Master Mix (TaKaRa, Japan). Then RT‐qPCR was performed using Hieff qPCR SYBR Green Master Mix (Yeasen, China). The expression level of the transcripts was normalized to the constitutive expression level of β‐actin. The primers used for amplification are listed in Table S4 (Supporting Information).
RIP assay was performed with the BeyoRIP RIP Assay Kit (Beyotime, China) using the manufacturer's protocol. HT22 cells were washed with PBS and centrifuged, then the cell was resuspended in complete lysis buffer. 3–5 µg antibody was pre‐bound to protein A/G agarose beads in NT2 wash buffer for 0.5 h and then incubated with 270 µL cell lysates for 4 h at 4 °C with rotation, and RNA was eluted from the beads by incubating with 100 µL elution buffer for 0.5 h at 55 °C. The eluted RNA was dissolved with RNase‐free water. Enrichment of certain fragments was determined by RT‐qPCR.
On the technique in general: Quantitative PCR measures a nucleic acid by following its amplification.

For a further test, the system named is tMCAO mice. Nature of the test: Long-term neurological recovery after tMCAO. The test is classed as in vivo. The settings on record: 48 mg/kg daily, i.p. The method, then:
The modified neurological severity score was applied according to the previous report.^[ [63] ^] The range of the neurological function score extends from 0 to 18 points. A higher score represents more severe neurological deficits. In the rotarod test, according to the previous report,^[ [64] ^] mice were tested under the accelerating rotor mode with acceleration from 5 to 20 rpm. The final score for statistical analysis was expressed as the mean time that mice could remain on the rod.

On to `Oc1cc(O)c2c(c1)O[C@H](c1ccc(O)c(O)c1)[C@@H](O)[C@@H]2c1c(O)cc(O)c2c1O[C@H](c1ccc(O)c(O)c1)[C@@H](O)C2` [Compound 1, procyanidin B3], for which, in test [1], the “cell viability, effect of G3BP1 knockdown” value is given as “inhibited the neuroprotective effects” and the “rate of TUNEL‐positive cells” value is “not significantly changed”. Moreover, in the test on G3BP1‐bound mRNA, the “level of G3BP1‐bound mRNA” value is listed as “higher”.
As to `CC(C)c1c(O)cc(O)c2c1O[C@H](c1ccc(O)c(O)c1)[C@@H](O)[C@@H]2c1c(O)cc(O)c2c1O[C@H](c1ccc(O)c(O)c1)[C@@H](O)C2` [Compound 6c, 8‐Isopropyl‐(+)‐Catechin‐(4α,8)‐(+)‐Catechin], in the test on tMCAO mice, the body weight result is “mitigated the tendency toward weight loss” and the “modified neurological severity scores” value is “lower scores than the tMCAO group”. Besides, the rotarod test entry with tMCAO mice (at the end of treatment) is “showed improvements compared with the tMCAO group”.
